Legend:
SW837 = assay: combination cScore with adagrasib (Bliss gap around IC50) (%PoC); higher = stronger additive effect
How it was run: (§1)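 Scores represent the average Bliss-independence gap, expected minus measured viability, in a field surrounding both monotherapy IC50s, with the top concentrations used when no IC50 was reached. Cells (NCI-H2122, NCI-H358, SW837) were seeded at 500 or 800 per well in 384-well plates, dosed in matrices at 24 h and grown for 72 h, with SW837 grown for 144 h. Viability was measured by CellTiter-Glo, normalised to vehicle wells and fitted with four-parameter curves.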

NCI-H2122 = assay: as above
How it was run: as §1

CNCc1ccc(-c2cc(-c3nc(-c4ccc(S(=O)(=O)C(C)C)cc4)cnc3N)on2)cc1 [VE-822/VX-970] + C=C(F)C(=O)N1CCN(c2nc(OC[C@@H]3CCCN3C)nc3c2CCN(c2cccc4cccc(Cl)c24)C3)C[C@@H]1CC#N [adagrasib]
combination cScore with adagrasib (SW837): -9.66
combination cScore with adagrasib (NCI-H2122): 3.08

O=C(O)CCCCC(CCSCc1ccccc1)SCc1ccccc1 (stereo not drawn) [CPI-613] + C=C(F)C(=O)N1CCN(c2nc(OC[C@@H]3CCCN3C)nc3c2CCN(c2cccc4cccc(Cl)c24)C3)C[C@@H]1CC#N [adagrasib]
combination cScore with adagrasib (SW837): 1.41
combination cScore with adagrasib (NCI-H2122): -5.48

COc1cc([C@@H]2c3cc4c(cc3[C@@H](O[C@@H]3O[C@@H]5CO[C@@H](C)O[C@H]5[C@H](O)[C@H]3O)[C@H]3COC(=O)[C@H]23)OCO4)cc(OC)c1O [Etoposide] + C=C(F)C(=O)N1CCN(c2nc(OC[C@@H]3CCCN3C)nc3c2CCN(c2cccc4cccc(Cl)c24)C3)C[C@@H]1CC#N [adagrasib]
combination cScore with adagrasib (SW837): -0.11
combination cScore with adagrasib (NCI-H2122): 2.33

CC(=O)O[C@@]12CO[C@@H]1C[C@H](O)[C@@]1(C)C(=O)[C@H](O)C3=C(C)[C@@H](OC(=O)[C@H](O)[C@@H](NC(=O)OC(C)(C)C)c4ccccc4)C[C@@](O)([C@@H](OC(=O)c4ccccc4)[C@H]21)C3(C)C [Docetaxel] + C=C(F)C(=O)N1CCN(c2nc(OC[C@@H]3CCCN3C)nc3c2CCN(c2cccc4cccc(Cl)c24)C3)C[C@@H]1CC#N [adagrasib]
combination cScore with adagrasib (SW837): 0.74
combination cScore with adagrasib (NCI-H2122): 3.05

C[C@@H](Oc1cc(-c2cnn(C3CCNCC3)c2)cnc1N)c1c(Cl)ccc(F)c1Cl + C=C(F)C(=O)N1CCN(c2nc(OC[C@@H]3CCCN3C)nc3c2CCN(c2cccc4cccc(Cl)c24)C3)C[C@@H]1CC#N [adagrasib]
combination cScore with adagrasib (SW837): 12.7
combination cScore with adagrasib (NCI-H2122): 6.58

Nc1nc2[nH]cc(CCc3ccc(C(=O)N[C@@H](CCC(=O)O)C(=O)O)cc3)c2c(=O)[nH]1 [Pemetrexed] + C=C(F)C(=O)N1CCN(c2nc(OC[C@@H]3CCCN3C)nc3c2CCN(c2cccc4cccc(Cl)c24)C3)C[C@@H]1CC#N [adagrasib]
combination cScore with adagrasib (SW837): 5.08
combination cScore with adagrasib (NCI-H2122): 2.77

CCN1CCN(c2ccc(Nc3cc(N(C)C(=O)Nc4c(Cl)c(OC)cc(OC)c4Cl)ncn3)cc2)CC1 [BGJ398] + C=C(F)C(=O)N1CCN(c2nc(OC[C@@H]3CCCN3C)nc3c2CCN(c2cccc4cccc(Cl)c24)C3)C[C@@H]1CC#N [adagrasib]
combination cScore with adagrasib (SW837): 3.09
combination cScore with adagrasib (NCI-H2122): -3.17

CO[C@H]1/C=C/C[C@H](C)[C@@H](C)S(=O)(=O)NC(=O)c2ccc3c(c2)N(C[C@@H]2CC[C@H]21)C[C@@]1(CCCc2cc(Cl)ccc21)CO3 [AMG176] + C=C(F)C(=O)N1CCN(c2nc(OC[C@@H]3CCCN3C)nc3c2CCN(c2cccc4cccc(Cl)c24)C3)C[C@@H]1CC#N [adagrasib]
combination cScore with adagrasib (SW837): -0.8
combination cScore with adagrasib (NCI-H2122): 5.81

Cc1cn(CCN2CCN(c3ccccc3-c3cc(C#N)cc(C(=O)NCCCN4CCCC4)c3)CC2)c2ccccc12 [LLY-507] + C=C(F)C(=O)N1CCN(c2nc(OC[C@@H]3CCCN3C)nc3c2CCN(c2cccc4cccc(Cl)c24)C3)C[C@@H]1CC#N [adagrasib]
combination cScore with adagrasib (SW837): 20.3
combination cScore with adagrasib (NCI-H2122): 12.6

COc1cc2cc(c1Cl)N(C)C(=O)C[C@H](OC(=O)C(C)C)[C@]1(C)O[C@@H]1[C@H](C)[C@@H]1C[C@@](O)(NC(=O)O1)[C@H](OC)/C=C/C=C(\C)C2 [Ansamitocin P3] + C=C(F)C(=O)N1CCN(c2nc(OC[C@@H]3CCCN3C)nc3c2CCN(c2cccc4cccc(Cl)c24)C3)C[C@@H]1CC#N [adagrasib]
combination cScore with adagrasib (SW837): 2.67
combination cScore with adagrasib (NCI-H2122): -2.93

CN(NC(=O)CC(=O)NN(C)C(=S)c1ccccc1)C(=S)c1ccccc1 [Elesclomol] + C=C(F)C(=O)N1CCN(c2nc(OC[C@@H]3CCCN3C)nc3c2CCN(c2cccc4cccc(Cl)c24)C3)C[C@@H]1CC#N [adagrasib]
combination cScore with adagrasib (SW837): 6.34
combination cScore with adagrasib (NCI-H2122): 2.19

CN1CC[C@H](c2c(O)cc(O)c3c(=O)cc(-c4ccccc4Cl)oc23)[C@H](O)C1 [Flavopiridol] + C=C(F)C(=O)N1CCN(c2nc(OC[C@@H]3CCCN3C)nc3c2CCN(c2cccc4cccc(Cl)c24)C3)C[C@@H]1CC#N [adagrasib]
combination cScore with adagrasib (SW837): 2.43
combination cScore with adagrasib (NCI-H2122): -0.29

COc1cccc2c1C(=O)c1c(O)c3c(c(O)c1C2=O)C[C@@](O)(C(=O)CO)C[C@@H]3O[C@H]1C[C@H](N)[C@H](O)[C@H](C)O1 [Doxorubicin] + C=C(F)C(=O)N1CCN(c2nc(OC[C@@H]3CCCN3C)nc3c2CCN(c2cccc4cccc(Cl)c24)C3)C[C@@H]1CC#N [adagrasib]
combination cScore with adagrasib (SW837): 4.49
combination cScore with adagrasib (NCI-H2122): -0.16

CC(C)(C)c1nc(-c2cccc(NS(=O)(=O)c3c(F)cccc3F)c2F)c(-c2ccnc(N)n2)s1 [Dabrafenib] + C=C(F)C(=O)N1CCN(c2nc(OC[C@@H]3CCCN3C)nc3c2CCN(c2cccc4cccc(Cl)c24)C3)C[C@@H]1CC#N [adagrasib]
combination cScore with adagrasib (SW837): -0.35
combination cScore with adagrasib (NCI-H2122): -9.32

C[C@]1(c2nc3c(C(N)=O)cccc3[nH]2)CCCN1 [Veliparib] + C=C(F)C(=O)N1CCN(c2nc(OC[C@@H]3CCCN3C)nc3c2CCN(c2cccc4cccc(Cl)c24)C3)C[C@@H]1CC#N [adagrasib]
combination cScore with adagrasib (SW837): 5.64
combination cScore with adagrasib (NCI-H2122): -0.59

CC(=O)Nc1cccc(-n2c(=O)n(C3CC3)c(=O)c3c(Nc4ccc(I)cc4F)n(C)c(=O)c(C)c32)c1 [Trametinib] + C=C(F)C(=O)N1CCN(c2nc(OC[C@@H]3CCCN3C)nc3c2CCN(c2cccc4cccc(Cl)c24)C3)C[C@@H]1CC#N [adagrasib]
combination cScore with adagrasib (SW837): 13.6
combination cScore with adagrasib (NCI-H2122): 6.74

Cn1nnc2c(C(N)=O)ncn2c1=O [Temozolomide] + C=C(F)C(=O)N1CCN(c2nc(OC[C@@H]3CCCN3C)nc3c2CCN(c2cccc4cccc(Cl)c24)C3)C[C@@H]1CC#N [adagrasib]
combination cScore with adagrasib (SW837): 4.71
combination cScore with adagrasib (NCI-H2122): 12.1

N#CN=C(NCCCCCCOc1ccc(Cl)cc1)Nc1ccncc1 [GMX1778] + C=C(F)C(=O)N1CCN(c2nc(OC[C@@H]3CCCN3C)nc3c2CCN(c2cccc4cccc(Cl)c24)C3)C[C@@H]1CC#N [adagrasib]
combination cScore with adagrasib (SW837): 2.82
combination cScore with adagrasib (NCI-H2122): -7.75

C=C(c1ccc(C(=O)O)cc1)c1cc2c(cc1C)C(C)(C)CCC2(C)C [Bexarotene] + C=C(F)C(=O)N1CCN(c2nc(OC[C@@H]3CCCN3C)nc3c2CCN(c2cccc4cccc(Cl)c24)C3)C[C@@H]1CC#N [adagrasib]
combination cScore with adagrasib (SW837): 0.535
combination cScore with adagrasib (NCI-H2122): -4.01

COc1cc2c(NC3CCN(C(C)C)CC3)nc(C3CCCCC3)nc2cc1OCCCN1CCCC1 [UNC0638] + C=C(F)C(=O)N1CCN(c2nc(OC[C@@H]3CCCN3C)nc3c2CCN(c2cccc4cccc(Cl)c24)C3)C[C@@H]1CC#N [adagrasib]
combination cScore with adagrasib (SW837): 13.2
combination cScore with adagrasib (NCI-H2122): 5.77

COC(=O)c1ccc2c(c1)NC(=O)/C2=C(\Nc1ccc(N(C)C(=O)CN2CCN(C)CC2)cc1)c1ccccc1 [Nintedanib] + C=C(F)C(=O)N1CCN(c2nc(OC[C@@H]3CCCN3C)nc3c2CCN(c2cccc4cccc(Cl)c24)C3)C[C@@H]1CC#N [adagrasib]
combination cScore with adagrasib (SW837): 4.49
combination cScore with adagrasib (NCI-H2122): 7.6

Cc1ccc(NC(=O)c2ccnc(C(F)(F)F)c2)cc1-c1cc(OCCO)nc(N2CCOCC2)c1 [LXH-254] + C=C(F)C(=O)N1CCN(c2nc(OC[C@@H]3CCCN3C)nc3c2CCN(c2cccc4cccc(Cl)c24)C3)C[C@@H]1CC#N [adagrasib]
combination cScore with adagrasib (SW837): 0.67
combination cScore with adagrasib (NCI-H2122): -3.51

NC(=O)Nc1cc(-c2cccc(F)c2)sc1C(=O)N[C@H]1CCCNC1 [AZD-7762] + C=C(F)C(=O)N1CCN(c2nc(OC[C@@H]3CCCN3C)nc3c2CCN(c2cccc4cccc(Cl)c24)C3)C[C@@H]1CC#N [adagrasib]
combination cScore with adagrasib (SW837): -2.72
combination cScore with adagrasib (NCI-H2122): -0.23

Cc1ncc([N+](=O)[O-])n1CCOC(=O)NC(Nc1ncccn1)C(Cl)(Cl)Cl (stereo not drawn) [Apcin] + C=C(F)C(=O)N1CCN(c2nc(OC[C@@H]3CCCN3C)nc3c2CCN(c2cccc4cccc(Cl)c24)C3)C[C@@H]1CC#N [adagrasib]
combination cScore with adagrasib (SW837): -0.93
combination cScore with adagrasib (NCI-H2122): 2.71

CCCCCOC(=O)Nc1nc(=O)n([C@@H]2O[C@H](C)[C@@H](O)[C@H]2O)cc1F [Capecitabin] + C=C(F)C(=O)N1CCN(c2nc(OC[C@@H]3CCCN3C)nc3c2CCN(c2cccc4cccc(Cl)c24)C3)C[C@@H]1CC#N [adagrasib]
combination cScore with adagrasib (SW837): 2.14
combination cScore with adagrasib (NCI-H2122): -6.31

O=C(O)c1nn(Cc2ccc(Cl)cc2Cl)c2ccccc12 [Lonidamine] + C=C(F)C(=O)N1CCN(c2nc(OC[C@@H]3CCCN3C)nc3c2CCN(c2cccc4cccc(Cl)c24)C3)C[C@@H]1CC#N [adagrasib]
combination cScore with adagrasib (SW837): -1.95
combination cScore with adagrasib (NCI-H2122): -1.92

O=[N+]([O-])c1ccc(NCCNc2ncc(-c3ncc[nH]3)c(-c3ccc(Cl)cc3Cl)n2)nc1 + C=C(F)C(=O)N1CCN(c2nc(OC[C@@H]3CCCN3C)nc3c2CCN(c2cccc4cccc(Cl)c24)C3)C[C@@H]1CC#N [adagrasib]
combination cScore with adagrasib (SW837): 5.65
combination cScore with adagrasib (NCI-H2122): -12.7

CNC(=O)c1cc(Oc2ccc(NC(=O)Nc3ccc(Cl)c(C(F)(F)F)c3)cc2)ccn1 [Sorafenib] + C=C(F)C(=O)N1CCN(c2nc(OC[C@@H]3CCCN3C)nc3c2CCN(c2cccc4cccc(Cl)c24)C3)C[C@@H]1CC#N [adagrasib]
combination cScore with adagrasib (SW837): -4.84
combination cScore with adagrasib (NCI-H2122): -6.98

CN(C)C(=N)NC(=N)N [Metformin] + C=C(F)C(=O)N1CCN(c2nc(OC[C@@H]3CCCN3C)nc3c2CCN(c2cccc4cccc(Cl)c24)C3)C[C@@H]1CC#N [adagrasib]
combination cScore with adagrasib (SW837): 1.92
combination cScore with adagrasib (NCI-H2122): -8.41

Source: the supplement of paper PMC11424490
